These results are taken from patent publication US11291655B2, “RAD51 inhibitors” (Cyteir Therapeutics, Inc., priority 2017, dated 2022).

A value given as a limit tells only on which side of the number the result lay.

As a reminder, the EC50 is the concentration that produces a half-maximal response. Lower therefore signals higher potency in that assay.

In this experiment the test system is Daudi Cell Culture. In words: Compound primary screening in Daudi cell culture. The format is cell-based. Conditions: Homo sapiens, 168 h; Daudi cells, 1250 cells per well, reads on Day 7. The protocol: Compound Primary Screening
1. Materials and Supplies
Plastic ware and consumables needed for this experiment include: Cell Culture media; Evaporation Buffer media; 100% DMSO; 96 well U-bottom sterile culture plates; 250 mL bottle; 1.5 mL Opaque amber epi tubes; Epi Tube rack; 300 mL reservoirs; 25 mL reservoir; 25 mL serological pipette tips; 5 mL serological pipette tips P1000 Pipette Tips; and P200 Pipette Tips.
Equipment needed for this experiment include: Viaflo 384 liquid handler; Eppendorf serological pipette; Eppendorf P1000 Pipette; and Eppendorf P200 Pipette
Daudi Cell Culture is also needed for this experiment.
Lastly, compounds (e.g., the compounds of this invention) to be tested are needed.
All steps were performed in a sterile environment inside the Biosafety cabinet.
A 96 well u-bottom plate was prepared by writing the experiment number, plate number, date and initials in the top right corner of the plate lid. With a sterile 300 ml reservoir, and 25 ml serological pipette, evaporation buffer media was pipetted into reservoir in 25 ml increments. Using the liquid handler, 150 ul of evaporation buffer media was pipetted from reservoir into rows A and H, and Columns 1 and 12 of the 96 well u-bottom plate. Cell cultures were counted to obtain the density of cells per ml, and the culture viability. The cell density information was used to obtain 1,000,000 cells from culture using a 5 mL serological pipette into an epi tube. The cell density information from the culture was used to calculate the number of cells and volume of media needed for the assay to seed 1250 cells in 130 ul of media per available culture well in the 96 well u-bottom plate. Rows B through F were used for cells (50 wells in total), with row G left for an empty media control. The calculation was overestimated by 10 mL to account for the dead volume in the 300 ml reservoir. Once the media volume was calculated, the appropriate volume of media was pipetted in 25 mL increments into the 250 mL bottle using a 25 mL serological pipette. The 250 ml bottle was capped tightly, and placed into a 37° C. water bath for 2 minutes. While the culture media was warming, 10 mL of fresh media was pipetted from the 500 mL culture media bottle into a sterile 25 mL reservoir. Using the Eppendorf multichannel pipette, 130 ul of media was pipetted from the 25 mL reservoir into row G of the 96 well u-bottom plate. Once the 250 mL bottle of media was warmed, the volume of culture needed was pipetted into the bottle, and mixed gently with a 25 mL serological pipette as to not create bubbles, and then the contents of the bottle were pipetted into a new 300 mL reservoir. Using the liquid handler, 130 ul of culture was pipetted from the 300 mL reservoir into rows B through F of the 96 well u-bottom plate. Once the culture was added, the plate was placed into a 37° C. incubator until the compound master plate was prepared for use.
Two 96 well u-bottom plates were prepared by writing the master plate name in the upper right corner of the plate lid. Labeling one DMSO master and the other Media Master. The compounds of interest were obtained from the laboratory freezer, and placed into a 25 well storage box with a lid, and set the box aside. The compounds were vortexed after thawing but before use. Using an automatic multichannel pipette, 20 ul of 100% DMSO was pipetted into wells B3-B11 through G3-G11 of the DMSO master plate. For each compound on the master plate, 50 ul of the compound were pipetted in the appropriate well of row 2 (reference plate map to determine appropriate well). A serial dilution was prepared beginning by aspirating 20 ul from row 2 and mixing with row 3, repeating until row 11 was reached. Using the liquid handler, 194 ul of Daudi media was dispensed into wells B2-B11 through G2-G11 of the Media master plate. Using the liquid handler, 6 ul from the DMSO master plate was aspirated and dispensed into the media master plate, mixing 100 ul twice. […]
Compound `CC(C)NC(=S)Nc1ccc(-c2ncc(-c3ccc(NC(=O)OCc4ccccc4)cc3S(=O)(=O)NC(C)(C)C)s2)cc1` [Compound L4] returned an EC50 above 10 µM.
Under `CCOC(=O)Nc1ccc(-c2cnc(-c3ccc(NC(=S)NC(C)C)cc3)s2)c(S(=O)(=O)NC(C)(C)C)c1` [Compound L5] stands below 5 µM; under `CC(=O)Nc1ccc(-c2cnc(-c3ccc(NC(=S)NC(C)C)cc3)s2)c(S(=O)(=O)NC(CO)CO)c1` [Compound D11], above 10 µM.
`CC(C)OC(=O)Nc1ccc(-c2ncc(-c3ccc(CNS(C)(=O)=O)cc3S(=O)(=O)NC(C)(C)C)s2)cc1` [Compound P5] returned an EC50 below 10 µM.
To `CC(=O)Nc1ccc(-c2cnc(-c3ccc(NC(=S)NC(C)C)cc3)s2)c(S(=O)(=O)NCc2ccncc2)c1` [Compound D12] belongs above 10 µM; to `CC(C)OC(=O)Nc1ccc(-c2ncc(-c3ccc(NS(=O)(=O)Cc4ccccc4)cc3S(=O)(=O)NC(C)(C)C)s2)cc1` [Compound E2], above 10 µM; to `CC(C)NC(=O)Nc1ccc(-c2ncc(-c3ccc(NS(C)(=O)=O)cc3S(=O)(=O)NC(C)(C)C)s2)cc1` [Compound J15], above 10 µM.
For the compound `CC(=O)Nc1ccc(-c2cnc(-c3ccc(N4CC(C)(C)OC4=O)cc3)s2)c(S(=O)(=O)NC(C)(C)C)c1` [Compound J13], the EC50 is above 10 µM.
For `CC(C)OC(=O)Nc1ccc(-c2ncc(-c3ccc(N4CCCOC4=O)cc3S(=O)(=O)NC(C)(C)C)s2)cc1` [Compound J24, isopropyl N-[4-[5-[2-(tert-butylsulfamoyl)-4-(2-oxo-1,3-oxazinan-3-yl)phenyl]thiazol-2-yl]phenyl]carbamate], the EC50 was below 5 µM.
For the compound `CC(C)OC(=O)Nc1ccc(-c2ncc(-c3ccc(CNC(=O)Cc4cccnc4)cc3S(=O)(=O)NC(C)(C)C)s2)cc1` [Compound O6], the concentration giving a half-maximal response (EC50) is above 10 µM.
`CC(C)OC(=O)Nc1ccc(-c2ncc(-c3ccc(NC(=O)OCC4CCCN4)cc3S(=O)(=O)NC(C)(C)C)s2)cc1` (stereo not shown) [Compound B7] showed an EC50 below 5 µM.
`CC(=O)Nc1ccc(-c2cnc(-c3ccc(NC(=O)OC(C)(C)C)cc3)s2)c(S(=O)(=O)NC(C)(C)C)c1` [Compound G11, tert-butyl N-[4-[5-[4-acetamido-2-(tert-butylsulfamoyl)phenyl]thiazol-2-yl]phenyl]carbamate] returned a half-maximal effective concentration (EC50) below 5 µM.
`CC(=O)Nc1ccc(-c2cnc(-c3cccc(NC(=O)OC(C)C)c3)s2)c(S(=O)(=O)NC(C)(C)C)c1` [Compound J14] displayed an EC50 below 10 µM.
In turn, `CC(C)OC(=O)Nc1ccc(-c2ncc(-c3ccc(NC(=O)OCc4cccnc4)cc3S(=O)(=O)NC(C)(C)C)s2)cc1` [Compound B9] came in with a 50% effective concentration (EC50) below 1 µM.
Under `CC(=O)Nc1ccc(-c2cnc(-c3ccc(NC(=S)NC(C)C)cc3)s2)c(S(=O)(=O)N2CCCC2)c1` [Compound D13] stands above 10 µM; under `CC(=O)Nc1ccc(-c2cnc(-c3ccc(N)cc3S(=O)(=O)NC(C)(C)C)s2)c(S(=O)(=O)NC(C)(C)C)c1` [Compound E8], above 10 µM; under `CC(C)NC(=S)Nc1ccc(-c2ncc(-c3ccc(NC(=O)NCc4cn[nH]c4)cc3S(=O)(=O)NC(C)(C)C)s2)cc1` [Compound N4], above 10 µM.
Take `COC(=O)Nc1ccc(-c2cnc(-c3ccc(NC(=O)OC(C)C)cc3)s2)c(S(=O)(=O)NC(C)(C)C)c1` [Compound H7]: the EC50 was below 1 µM.
Take `CC(C)NC(=S)Nc1ccc(-c2ncc(-c3ccc(Nc4nccn4C)cc3S(N)(=O)=O)s2)cc1` [Compound E19]: the EC50 was above 10 µM.
As to `COC(=O)NCc1ccc(-c2cnc(-c3ccc(NC(=O)OC(C)C)cc3)s2)c(S(=O)(=O)NC(C)(C)C)c1` [Compound P7], the half-maximal effective concentration (EC50) is below 10 µM.
As for `CC(=O)Nc1ccc(-c2cnc(-c3ccc(NC(=O)NC(C)C)cc3)s2)c(S(=O)(=O)NC(C)(C)C)c1` [Compound G10], the half-maximal effective concentration (EC50) was below 10 µM.
Regarding `COC(=O)[C@H](C)NS(=O)(=O)c1cc(NC(C)=O)ccc1-c1cnc(-c2ccc(NC(=S)NC(C)C)cc2)s1` [Compound D21], the concentration giving a half-maximal response (EC50) is above 10 µM.
